SMILES strings stand for the structures.

Common to all, as to type: functional
Assay [1] concerns Spodoptera littoralis. Description: Antifeedant activity against Spodoptera littoralis measured at 50 mg/l after 8 to 24 hr by behavioral bioassay.
The subject of assay [2] is Spodoptera littoralis. Kind of assay: Antifeedant activity against Spodoptera littoralis measured at 100 mg/l after 8 to 24 hr by behavioral bioassay.
Assay [3] deals with Spodoptera littoralis. Kind of assay: Antifeedant activity against Spodoptera littoralis measured at 1 mg/l after 8 to 24 hr by behavioral bioassay.
Assay [4] has as its system Spodoptera littoralis. Kind of assay: Antifeedant activity against Spodoptera littoralis measured at 10 mg/l after 8 to 24 hr by behavioral bioassay.

With `C=C(C)[C@@H](CC)CC[C@@H](C)[C@H]1CC[C@H]2[C@@H]3CC=C4C[C@@H](O)CC[C@]4(C)[C@H]3CC[C@]12C` [CLEROSTEROL], the AFI in assay [1] is recorded as -15.3%; in assay [2], 3.3%.
Take `C=C(C)[C@@H](CC)CC[C@@H](C)[C@H]1CC[C@H]2[C@@H]3CC=C4C[C@@H](OC(=O)CCC)CC[C@]4(C)[C@H]3CC[C@]12C` [MIGHAVIDE]: the values for the AFI in assay [1] and in assay [2] were -0.5% and 10.3%, respectively.
Take `CCCCCCCCCCCCCC(O)CC(=O)OC` (stereo not drawn) [3-HYDROXYHEXADECANOIC ACID METHYL ESTER]: the AFI in assay [1] is reported as 32%; in assay [2], 45%; in assay [3], -3.5%; in assay [4] it was 9.1%.

The values are drawn from ChEMBL document CHEMBL3046795, “Antifeedant activity of plant extracts and of new natural diglyceride compounds isolated from Ajuga pseudoiva leaves against Spodoptera littoralis larvae” (2001).
